# Data as given in patent publication US20060263802A1 (priority 2003, published 2006).
# What was measured:
# Type in all cases: binding
# [1] = tested on: human monoclonal antibody CRJB
# [2] = tested on: human monoclonal antibody CR57
# [3] = tested on: human monoclonal antibody CRJA
# [4] = tested on: human monoclonal antibody CRJB; remark: listed apart in the source
# [5] = tested on: human monoclonal antibody CR57; remark: listed apart in the source
# [6] = tested on: human monoclonal antibody CRJA; remark: listed apart in the source
Sequence,Binding of CRJB to linear peptide (PEPSCAN-ELISA signal) [1],Binding of CR57 to linear peptide (PEPSCAN-ELISA signal) [2],Binding of CRJA to linear peptide (PEPSCAN-ELISA signal) [3],Binding of CRJB (10 μg/ml) to looped/cyclic peptide (PEPSCAN-ELISA signal) [4],Binding of CR57 (10 μg/ml) to looped/cyclic peptide (PEPSCAN-ELISA signal) [5],Binding of CRJA (10 μg/ml) to looped/cyclic peptide (PEPSCAN-ELISA signal) [6],Binding of CRJB (10 μg/ml) to looped/cyclic peptide (PEPSCAN-ELISA) [4],Binding of CR57 (10 μg/ml) to looped/cyclic peptide (PEPSCAN-ELISA) [5],Binding of CRJA (10 μg/ml) to looped/cyclic peptide (PEPSCAN-ELISA) [6],also measured
YDRSLHSRVFPSGKC,818,364,1027,72,112,86,–,–,–,binding of antibody CRJB to linear peptide (PEPSCAN OD) [1]: clearly bound; binding of antibody CR57 to linear peptide (PEPSCAN OD) [2]: bound; binding of antibody CRJA to linear peptide (PEPSCAN OD) [3]: clearly bound
NEILPSKGCLRVGGR,130,104,97,–,–,–,111,104,105,–
DPSTVFKDGDEAEDF,–,–,–,–,–,–,–,–,–,Binding of human monoclonal antibody CRJB to linear peptide (PEPSCAN-ELISA signal) [1]: 147; Binding of human monoclonal antibody CR57 to linear peptide (PEPSCAN-ELISA signal) [2]: 98; Binding of human monoclonal antibody CRJA to linear peptide (PEPSCAN-ELISA signal) [3]: 132; Binding of CRJB to looped/cyclic peptide (PEPSCAN-ELISA signal) [4]: 110; Binding of CR57 to looped/cyclic peptide (PEPSCAN-ELISA signal) [5]: 134; Binding of CRJA to looped/cyclic peptide (PEPSCAN-ELISA signal) [6]: 110
ESIMTTKSVSFRRLS,111,62,61,–,–,–,92,80,49,–
TPDACRAAYNWKMAG,132,92,132,90,125,111,–,–,–,–
LGPWSPIDIHHLSCP,112,69,84,83,88,72,–,–,–,–
TNFVGYVTTTFKRKH,125,71,96,99,79,96,–,–,–,–
ENYTNFVGYVTTTFK,112,44,80,80,60,58,–,–,–,–
TTKESLVIISPSVAD,121,78,91,71,114,108,–,–,–,–
GFVDERGLYKSLKGA,120,84,104,–,–,–,86,107,87,–
DEIEHLVVEELVRKR,123,94,90,–,–,–,106,113,106,–
VGYVTTTFKRKHFRP,113,75,80,85,117,100,–,–,–,–
VVEELVRKREECLDA,108,62,90,–,–,–,5,30,59,–
IILGPDGNVLIPEMQ,118,85,80,–,–,–,83,99,107,–
TCTGVVTEAENYTNF,112,92,96,93,107,112,–,–,–,–
IEHLVVEELVRKREE,129,90,100,–,–,–,112,103,112,–
DAHYKSVRTWNEILP,121,59,107,–,–,–,100,90,98,–
VAVSSTYCSTNHDYT,114,85,106,83,103,88,–,–,–,–
PDGNVLIPEMQSSLL,129,87,99,–,–,–,108,110,112,–
GNVLIPEMQSSLLQQ,120,96,85,–,–,–,103,99,78,–
TNLSGFSYMELKVGY,106,43,102,107,39,85,–,–,–,–
SVSFRRLSHLRKLVP,123,64,101,–,–,–,84,94,98,–
SRVFPSGKCSGVAVS,125,100,107,89,112,92,–,–,–,–
